As usually defined, the logP is the decadic logarithm of the partition coefficient of the neutral form, usually between octanol and water.

The data set is described as follows: logP determination by HPLC on a reversed-phase column (C 18), EEC Directive 79/831 Annex V.A8. In kind it is physicochemical. The protocol: The stated logP values were determined in accordance with EEC Directive 79/831 Annex V.A8 by HPLC (high performance liquid chromatography) on a reversed-phase column (C 18). Temperature: 43° C.
Setting [1] is: method marker [b], isomer A / isomer B / isomer mixture as noted in the cell.
Setting [2] is: method marker [a] (footnote not shown), isomer A / isomer B / isomer mixture as noted in the cell.

Consider `C=C(CON=C(C)c1cccc(C)n1)CON=C(N)c1ccc(C)c(C)n1` [compound 808], for which, where the note is “value marked [a]”, the logP was 2.38^[a].
For `CC(=NOC/C=C\CON=C(C)c1cccc(C)n1)c1cccc(C)n1` [compound 778], the logP (value marked [b]) is 3.31^[b].
As for `Cc1cccc(C(=NOCC(C)CON=C(c2ccccc2)c2cccc(C)n2)c2ccccc2)n1` (mixture of isomers) [Compound 659], under “method marked [a] in Table 1”, the logP was 4.09^[a].
Regarding `CC(=NOC/C=C/CON=C(C)c1cccc(C)n1)c1cccc(C)n1` [Compound 777], the logP (value marked [b]) is 2.89^[b].
Regarding `CC(=NOCC(C)(C)CON=C(C)c1sc(C)nc1C)c1cccc(C)n1` [compound 546], the logP (method marked [b] in Table 1) is 4.37^[b].
Regarding `CC(=NOCC(CON=C(C)c1nc(C)ccc1C)C(C)C)c1nc(C)ccc1C` (single isomer, unassigned) [Compound 753], the log partition coefficient (logP) was 4.51^[b] (method marked [b] in Table 1) and 5.95^[c] (method marked [c] in Table 1).
On to `CC(=NOCCCCCCON=C(C)c1cccc(CC(C)C)n1)c1cccc(C)n1` [compound 342], for which, where the note is “value marked [b]”, the logP is 7.36^[b].
`CC(=NOCCON=C(C)c1ncc(Cl)cc1Cl)c1ncc(Cl)cc1Cl` [compound 55]: under setting [1], the logP is 5.39^[b].
Turning to `CC(=NOCCCON=C(C)c1cc(C)cc(C)n1)c1cc(C)cc(C)n1` [Compound 224], the logP under setting [2] is 1.65^[a].
With `CCC(=NOCC1(CON=C(CC)c2cccc(C)n2)CC(CC(C)C)=NO1)c1cccc(C)n1` (stereo not drawn) [compound 609], the logP (method marked [b] in Table 1) is 5.21^[b].
Still for that read-out and setting: for `Cc1cc(C)nc(/C(N)=N/OCc2ccccc2CO/N=C(\N)c2cc(C)cc(C)n2)c1` [compound 724] the value was 3.72^[b].
Take `CC(=NOCC(C)CON=C(C)c1ccnc(C)n1)c1cccc(C)n1` (stereo not drawn) [compound 430]: under “value marked [b]”, the logP is 3.56^[b].
`C=C(CON=C(C)c1cccc(-c2ccccc2)n1)CON=C(C)c1cccc(-c2ccccc2)n1` [compound 567]: the logP came out at 7.26 (method marked [b] in Table 1) and 7.27 (method marked [c] in Table 1).
Turning to `CC(=NOCC(C)(C)CON=C(Cc1ccccc1)c1ncccc1C)c1cccc(C)n1` [compound 363], the logP (value marked [b]) is 5.71^[b].
For the molecule `CC(=NOCC(C)(C)CON=C(C)c1cc(C)cc(C)n1)c1cc(C)cc(C)n1` [Compound 276], the logP (value marked [a]) was 2.54^[a].
In the case of `CC(=NOCC(CON=C(C)c1cc(C)cc(C)n1)C(C)C)c1cc(C)cc(C)n1` (stereo not drawn) [Compound 682], the logP is 3.12^[b] (method marked [b] in Table 1) and 7.09^[c] (method marked [c] in Table 1).
Consider `CC(=NOCC1(CON=C(C)c2cc(C)cc(C)n2)CC(C(C)(C)C)=NO1)c1cc(C)cc(C)n1` (stereo not drawn) [compound 642], for which the logP (method marked [b] in Table 1) was 2.62^[b].
As to `CC(=NOCC(C)(C)CON=C(C)c1cccnc1C)c1cccc(C)n1` [compound 488], the logP (value marked [b]) is 2.20^[b].
As for `CC(=NOCCCCON=C(C)c1cccc(C)n1)c1ccncc1` [compound 440], the logP (value marked [b]) was 1.88^[b].
Consider `COCC#Cc1cc(C)nc(C(C)=NOCC(C)CON=C(C)c2cc(C#CCOC)cc(C)n2)c1` (stereo not drawn) [compound 874], for which the logP by setting is: (value marked [a]) 6.76^[a]; (value marked [b]) 6.76^[b]; (value marked [c]) 6.87^[c].
With `C=C(CON=C(C)c1cccc(C)n1)CON=C(N)c1nc(C2CC2)cc(C2CC2)n1` [Compound 243], the logP under setting [1] is 3.09^[b].
Take `Cc1cccc(C=NOCCCCON=Cc2cccc(C)n2)n1` [compound 776]: where the note is “value marked [b]”, the logP was 2.16^[b].
Regarding `CCCC1=NOC(CON=C(CC)c2cccc(C)n2)(CON=C(CC)c2cccc(C)n2)C1` (stereo not drawn) [compound 608], the logP (method marked [b] in Table 1) was 4.72^[b].
As for `N/C(=N\OCc1ccc(CO/N=C(\N)c2ncc(F)cc2F)cc1)c1ncc(F)cc1F` [compound 719], for the setting “method marked [b] in Table 1”, the logP was 2.96^[b].
On to `CC(=NOCC(C)CON=C(C)c1cccc(C)n1)c1cnccn1` (stereo not drawn) [compound 507], for which, where the note is “value marked [b]”, the logP was 3.28^[b].
Consider `CC(=NOCCC(C)ON=C(C)c1nc(C)ccc1C)c1nc(C)ccc1C` (single isomer, unassigned) [compound 758], for which the log partition coefficient (logP) (method marked [b] in Table 1) is 2.13^[b] and the logP (method marked [c] in Table 1) is 4.03^[c].
As to `CC(=NOCC(C)(C)CON=C(c1ccccc1)c1cccc(C)n1)c1cccc(C)n1` (mixture of isomers) [Compound 880], the logP is, setting by setting: (value marked [b]) 4.72^[b]; (value marked [c]) 5.37^[c].
On to `CC(=NOCCCCCCON=C(C)c1cccc(C)n1)c1cnccn1` [compound 513], for which the logP (value marked [b]) was 4.25^[b].
On to `CC(=NOCCCON=C(C)c1cccnc1)c1cccnc1` [compound 33], for which the logP under setting [1] is 1.51^[b].
Turning to `CC(=NOCCCCCCON=C(C)c1cccc2ccccc12)c1cccc(C)n1` [compound 395], under “value marked [b]”, the logP was 6.16^[b].
Take `C=C(CON=C(C)c1csc(C)n1)CON=C(C)c1csc(C)n1` [compound 522]: the logP was 3.22^[a] (value marked [a]) and 3.22^[b] (value marked [b]).
With `CC(=NOCCON=C(C)c1cnc(-c2ccccc2)s1)c1cnc(-c2ccccc2)s1` [compound 48], the logP under setting [1] is 6.51^[b].
Regarding `CCCC1=NOC(CON=C(C)c2ccc(C)c(C)n2)(CON=C(C)c2ccc(C)c(C)n2)C1` (stereo not drawn) [compound 629], the logP (method marked [b] in Table 1) was 3.11^[b].
For the molecule `CC(=NOCC1OC(C)(C)OC1CON=C(C)c1cccc(C)n1)c1cccc(C)n1` (stereo not drawn) [compound 215], the logP under setting [1] was 3.09^[b].
In the case of `CC(=NOCCON=C(C)c1cccc(C)n1)c1cccc(C)n1` (mixture of isomers) [Compound 13], the logP under setting [2] was 2.22^[a].
`C=C(CON=C(C)c1cc(C)cc(C)n1)CON=C(C)c1cc(C)cc(C)n1` [Compound 219]: the logP under setting [1] is 1.98^[b].
With `CC(=NOCC(C)CON=C(C)c1cccc(C)n1)c1cccnc1` (stereo not drawn) [compound 438], where the note is “value marked [b]”, the logP was 2.34^[b].
`CCCc1cccc(C(C)=NOCCCON=C(C)c2cccc(CCC)n2)n1` [Compound 174]: the logP under setting [2] was 6.78^[a].
In the case of `CC(=NOC/C=C\CON=C(C)c1ccccn1)c1ccccn1` [Compound 541], the logP (method marked [b] in Table 1) is 3.04^[b].
With `CC(=NOCCCCON=C(C)c1cccc(C)n1)c1ccccc1` [compound 385], the logP (value marked [b]) was 4.68^[b].
On the same count and under the same terms, for `COc1cc(C)nc(C(C)=NOCCCCCCON=C(C)c2cccc(C)n2)c1` [compound 462] the value was 4.15^[b].
In the case of `CCC(CC)(CON=C(C)c1cccc(C)n1)CON=C(C)c1cccc(C)n1` [Compound 809], the logP was 6.68^[b] (value marked [b]) and 6.97^[c] (value marked [c]).
As to `CC(=NOCC(C)CON=C(C)c1cc(C(F)(F)F)cc(C)n1)c1cc(C(F)(F)F)cc(C)n1` (stereo not drawn) [compound 869], the logP is, setting by setting: (value marked [a]) 7.36^[a]; (value marked [b]) 7.36^[b]; (value marked [c]) 5.53^[c].
Turning to `C=C(CON=C(N)c1cc(C)cc(C)n1)CON=C(N)c1cc(C)cc(C)n1` [compound 127], the logP under setting [1] was 2.7^[b].
Turning to `CC(=NOCC(C)CON=C(C)c1cccc(C(C)C)n1)c1cccc(C(C)C)n1` (stereo not drawn) [Compound 229], the lipophilicity (logP) under setting [2] was 7.36^[a].
With `CC(=NOCC(CON=C(C)c1cccc(C)n1)c1ccccc1)c1cccc(C)n1` (stereo not drawn) [Compound 264], the logP (value marked [b]) is 4.63^[b].
On to `C=C(CON=C(C)c1cccc(C)n1)CON=C(C)c1ncccc1C` (single isomer, unassigned) [Compound 203], for which the logP under setting [1] was 3.03^[b] (isomer A).
On to `C=C(CON=C(C)c1cccc(C)n1)CON=C(N)c1nccc(C)n1` [compound 187], for which the logP under setting [1] was 1.73^[b].
With `CC(=NOCC(CON=C(C)c1ccc(C)c(C)n1)C(C)(C)C)c1ccc(C)c(C)n1` (stereo not drawn) [Compound 317], the logP reads like this: (value marked [b]) 4.91^[b]; (value marked [c]) 7.36^[c].
As for `CC(=NOC(=O)NCCCCNC(=O)ON=C(C)c1ccc(C)c(C)n1)c1ccc(C)c(C)n1` [compound 851], the logP (value marked [a]) is 2.04^[a].
For the molecule `C=C(CO/N=C(\N)c1nc(COC)c(C)c(COC)n1)CO/N=C(\N)c1nc(COC)c(C)c(COC)n1` [compound 44], under setting [1], the logP is 1.83^[b].
For `CCCC(=NOCC(C)CON=C(C)c1cccc(C)n1)c1ncccc1C` (single isomer, unassigned) [compound 549], the logP (method marked [b] in Table 1) was 4.68^[b] (isomer B).
Turning to `CC(=NOCCCCON=C(C)c1nccc(C)n1)c1cccc(C)n1` [compound 508], the logP (value marked [b]) was 2.37^[b].
`CC(=NOCC(CON=C(C)c1nc(C)ccc1C)C(C)C)c1nc(C)ccc1C` (single isomer, unassigned) [compound 752]: the logP is 2.89^[b] (method marked [b] in Table 1) and 4.85^[c] (method marked [c] in Table 1).
As to `C=C(CON=C(C)c1cccc(C)n1)CON=C(C)c1ncccc1C` (single isomer, unassigned) [compound 478], the logP (value marked [b]) was 3.11^[b] (isomer B).
With `CC(=NOCCCON=C(C)c1cccc(Cc2ccccc2)n1)c1cccc(Cc2ccccc2)n1` [Compound 131], under setting [2], the logP was 6.95^[a].
Turning to `COc1ccc(C(C)=NOCCCCON=C(C)c2cccc(C)n2)cc1OC` [compound 380], the logP (value marked [b]) is 3.85^[b].
Take `CC(=NOCC(C)(O)CON=C(C)c1ccccn1)c1ccccn1` (stereo not drawn) [compound 2]: the logP under setting [2] is 1.73^[a].
For the molecule `C=C(CON=C(C)c1cccc(C)n1)CON=C(CCC)c1cccc(C)n1` [compound 355], where the note is “value marked [b]”, the logP was 4.87^[b].
Turning to `CC(=NOCC(C)CON=C(C)c1ccc[nH]1)c1ccc[nH]1` (mixture of isomers) [compound 566], the logP runs as follows: (method marked [b] in Table 1) 3.47^[b]; (method marked [c] in Table 1) 3.62^[c].
Consider `CC#Cc1cccc(C(C)=NOCC(C)CON=C(C)c2cccc(C#CC)n2)n1` (stereo not drawn) [Compound 686], for which the logP (method marked [b] in Table 1) was 5.65^[b].
Take `C=C(CON=C(C)c1cccc(OC)n1)CON=C(C)c1cccc(OC)n1` [compound 145]: the logP under setting [1] was 5.89^[b].
Take `CCCC(=NOCC1(CON=C(CCC)c2cccc(C)n2)CC(C)=NO1)c1cccc(C)n1` (stereo not drawn) [compound 615]: the logP (method marked [b] in Table 1) was 4.56^[b].
Regarding `COc1cccc(C(C)=NOCC(C)CON=C(C)c2cccc(C)n2)c1` (stereo not drawn) [Compound 495], under “value marked [b]”, the logP is 4.80^[b].

The values are drawn from patent publication US20100022559A1, “BISOXIMES AS FUNGICIDES” (BAYER CROPSCIENCE AG, priority 2006, published 2010).
